# Laboratory results taken from patent US20050288323A1, “Octahydro-indolizine and quinolizine and hexahydro-pyrrolizine” (priority 2000, published 2005).
# Molecular target: T1, human histamine H3 receptor (Homo sapiens, UniProt Q9Y5N1)
# T1 construct: One microgram of supercoiled H3 receptor cDNA was added to the cells and mixed; expressed in transfected cells; membranes
# Assay: [3H]-N-methylhistamine binding
# Details: Table 5; [3H]-N-methylhistamine binding
# Procedure: Thus in the present invention receptor binding was determined using the human histamine H3 receptor (See Lovenberg et al Mol. Pharmacol. 1999, 1107). Screening using the human receptor is particularly important for the identification of new therapies for the treatment of human disease. Conventional binding assays for example are determined using rat synaptosomes (Garbarg et al J. Pharmacol. Exp. Ther. 1992, 263, 304), rat cortical membranes (West et al Mol. Pharmacol. 1990, 610), and guinea pig brain (Korte et al Biochem. Biophys. Res. Commun. 1990, 978). Only limited studies have been performed previously using human tissue but these allude to significant differences in the pharmacology of rodent and primate receptors (West et al Eur. J. Pharmacol. 1999, 233).
# Transfection of Cells with Human Histamine Receptor
# A 10 cm tissue culture dish with a confluent monolayer of SK-N-MC cells was split two days prior to transfection. Using sterile technique the media was removed and the cells were detached from the dish by the addition of trypsin. One fifth of the cells were then placed onto a new 10 cm dish. Cells were grown in a 37° C. incubator with 5% CO2 in Minimal Essential Media Eagle with 10% Fetal Bovine Serum. After two days cells were approximately 80% confluent. These were removed from the dish with trypsin and pelleted in a clinical centrifuge. The pellet was then re-suspended in 400 μL complete media and transferred to an electroporation cuvette with a 0.4 cm gap between the electrodes (Bio-Rad #165-2088). One microgram of supercoiled H3 receptor cDNA was added to the cells and mixed. The voltage for the electroporation was set at 0.25 kV, the capacitance was set at 960 μF. After electroporation the cells were diluted into 10 mL complete media and plated onto four 10 cm dishes. Because of the variability in the efficiency of electroporation, four different concentrations of cells were plated. The ratios used were; 1:20, 1:10, 1:5, with the remainder of the cells being added to the fourth dish. The cells were allowed to recover for 24 hours before adding the selection media (complete media with 600 μg/mL G418). After 10 days dishes were analyzed for surviving colonies of cells. Dishes with well isolated colonies were used. Cells from individual colonies were isolated and tested. SK-N-MC cells were used because they give efficient coupling for inhibition of adenylate cyclase. The clones that gave the most robust inhibition of adenylate cyclase in response to histamine were used for further study.
# [^3H]-N-methylhistamine Binding
# Cell pellets from histamine H3 receptor-expressing SK-N-MC cells were homogenized in 20 mM TrisHCl/0.5 mM EDTA. Supernatants from a 800 g spin were collected, recentrifuged at 30,000 g for 30 minutes. Pellets were re-homogenized in 50 mM Tris/5 mM EDTA (pH 7.4). Membranes were incubated with 0.8 nM [^3H]-N-methylhistamine plus/minus test compounds for 45 min at 25° C. and harvested by rapid filtration over GF/C glass fiber filters (pretreated with 0.3% polyethylenimine) followed by four washes with ice cold buffer. Filters were dried, added to 4 mL scintillation cocktail and then counted on a liquid scintillation counter. Non-specific binding was defined with 10 μM histamine. The pKi values were calculated based on a Kd of 800 pM and a ligand concentration ([L]) of 800 pM according to the formula: Ki=(IC50)/(1+([L]/(Kd))
# T1 sequence (Q9Y5N1 whole entry): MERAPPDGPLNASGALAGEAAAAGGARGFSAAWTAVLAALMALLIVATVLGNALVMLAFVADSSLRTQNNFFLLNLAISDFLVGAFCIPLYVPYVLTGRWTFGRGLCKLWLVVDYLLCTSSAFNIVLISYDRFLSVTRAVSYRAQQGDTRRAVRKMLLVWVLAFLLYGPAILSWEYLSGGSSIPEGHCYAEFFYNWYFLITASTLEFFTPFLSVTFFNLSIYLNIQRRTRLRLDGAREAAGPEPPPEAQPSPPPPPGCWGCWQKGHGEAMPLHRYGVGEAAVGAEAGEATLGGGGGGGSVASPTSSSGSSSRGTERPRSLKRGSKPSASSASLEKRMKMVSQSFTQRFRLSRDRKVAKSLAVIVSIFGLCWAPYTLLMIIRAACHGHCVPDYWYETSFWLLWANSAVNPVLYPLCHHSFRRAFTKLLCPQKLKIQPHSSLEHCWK
row,Structure (SMILES),Ki [nM]
1,c1cncc(CNc2ccc([C@H]3CC[C@H]4CCCCN43)cc2)c1 (racemic) [Example 127],589
2,c1ccc(CNc2ccc([C@H]3CC[C@H]4CCCCN43)cc2)nc1 (racemic) [Example 128],1340
3,c1coc(CNc2ccc([C@H]3CC[C@H]4CCCCN43)cc2)c1 (racemic) [Example 130],647
4,c1cc(CNc2ccc([C@H]3CC[C@H]4CCCCN43)cc2)ccn1 (racemic) [Example 131],511
5,c1ccc(CNc2ccc([C@H]3CC[C@H]4CCCCN43)cc2)cc1 (racemic) [Example 132],511
6,[O-][n+]1ccc(CNc2ccc([C@H]3CC[C@H]4CCCCN43)cc2)cc1 (racemic) [Example 133],4380
7,c1ccc(CN(Cc2ccccc2)c2ccc([C@H]3CC[C@H]4CCCCN43)cc2)cc1 (racemic) [Example 135],3950

# Other lines, results leading:
row,Ki [nM],Structure (SMILES)
1,648,c1cc(CNc2ccc([C@H]3CC[C@H]4CCCCN43)cc2)cs1 (racemic) [Example 129]
2,3640,c1c[nH]c(CNc2ccc([C@H]3CC[C@H]4CCCCN43)cc2)n1 (racemic) [Example 134]

# Same assay, conditions: [3H]-N-methylhistamine 0.8 nM, membranes of H3 receptor-expressing SK-N-MC cells
row,Structure (SMILES),Ki [nM]
1,"Oc1ccc([C@@H]2CCC[C@@H]3CCCN32)cc1 (racemic) [Example 60, 5-(4-Hydroxyphenyl)octahydroindolizine]",1400
2,c1cc([C@@H]2CCC[C@@H]3CCCN32)ccc1OCCCCN1CCCCC1 (racemic) [Example 62],0.7
3,"C(=C\c1ccc([C@H]2CC[C@H]3CCCCN32)cc1)/c1ccncc1 (racemic) [Example 73, trans-3-[4-(4-Pyridinylethenyl)phenyl]octahydroindolizine]",65
4,"C[Si](C)(C)C#Cc1ccc([C@H]2CC[C@H]3CCCCN32)cc1 (racemic) [Example 74, trans-3-(4-trimethylsilylacetylenephenyl)octahydroindolizine]",1500
5,"C#Cc1ccc([C@H]2CC[C@H]3CCCCN32)cc1 (racemic) [Example 75, trans-3-(4-acetylenephenyl)octahydroindolizine]",1100
6,"c1cc(Oc2ccc([C@H]3CC[C@H]4CCCCN43)cc2)ccn1 (racemic) [Example 76, trans-3-[4-(4-Pyridyloxy)phenyl]octahydroindolizine]",77
7,"CS(=O)(=O)Nc1ccc(Oc2ccc([C@H]3CC[C@H]4CCCCN43)cc2)cc1 (racemic) [Example 79, trans-3-[4-(4-Methansulfonaminophenoxy)phenyl]octahydroindolizine]",46
8,"CS(=O)(=O)N(c1cccc(COc2ccc([C@H]3CC[C@H]4CCCCN43)cc2)c1)S(C)(=O)=O (racemic) [Example 82, trans-3-[4-(3-bis-Methansulfonaminobenzyloxy)phenyl]octahydroindolizine]",128
9,"c1cc([C@H]2CC[C@H]3CCCCN32)ccc1OCCCN1CCCCC1 (racemic) [Example 92, trans-3-(4-(3-Piperidinylpropoxy)phenyl)octahydroindolizine]",0.3
10,"CN(c1ccc([C@H]2CC[C@H]3CCCCN32)cc1)S(C)(=O)=O (racemic) [Example 99, trans-3-(4-(N-Methyl-N-methylsulfonylamido)phenyl)octahydroindolizine]",> 5000
11,CC(C)(C)OC(=O)N1CCC(Nc2ccc([C@H]3CC[C@H]4CCCCN43)cc2)CC1 (racemic) [Example 100],517
12,"CS(=O)(=O)N1CCC(Nc2ccc([C@H]3CC[C@H]4CCCCN43)cc2)CC1 (racemic) [Example 102, trans-3-[4-(N-Methylsulfonyl-4-aminopiperidine)phenyl]octahydroindolizine]",243
13,CN(c1ccc([C@H]2CC[C@H]3CCCCN32)cc1)C1CCN(S(C)(=O)=O)CC1 (racemic) [Example 103],98
14,"CN(C(=O)CCCCN1CCCCC1)c1ccc([C@H]2CC[C@H]3CCCCN32)cc1 (racemic) [Example 113, trans-3-[4-(N-Methyl-N-5-piperidylpentanamido)phenyl]octahydroindolizine]",63
15,"O=S(=O)(CCN1CCCCC1)Nc1ccc([C@H]2CC[C@H]3CCCCN32)cc1 (racemic) [Example 120, trans-3-{4-[(2-Piperidylethyl)sulfonyl]amidophenyl}octahydroindolizine]",11
16,"O=C(c1ccc(Cl)cc1)c1ccc([C@H]2CC[C@H]3CCCCN32)cc1 (racemic) [Example 124, trans-3-{4-[(4-Chlorophenyl)methan-1-oxo]phenyl}octahydroindolizine]",368
17,O=Cc1ccc([C@H]2CC[C@H]3CCCCN32)cc1 (racemic) [trans-3-(4-Formylphenyl)octahydroindolizine],587
18,"N=C1NC(=N)/C(=C/c2ccc([C@H]3CC[C@H]4CCCCN43)cc2)S1 (relative stereo) [Example 46, trans-3-[4-(4-Methylene-1,3-thiazolidine-2,4-diimine)phenyl]octahydroindolizine]",330
19,"COc1ccccc1[C@H]1C[C@@H]2CCCCN2C1 (relative stereo) [Example 70, anti-2-(2-Methoxyphenyl)octahydroindolizine]",792

# The remaining lines, values ahead:
row,Ki [nM],Structure (SMILES)
1,278,"ClCCCCOc1ccc([C@@H]2CCC[C@@H]3CCCN32)cc1 (racemic) [Example 61, 5-[4-(4-Chlorobutanoxy)phenyl]octahydroindolizine]"
2,5,"c1cc([C@@H]2CCC[C@@H]3CCCN32)ccc1OCCN1CCCCC1 (racemic) [Example 63, 5-[4-(2-Piperidinylethanoxy)phenyl]octahydroindolizine]"
3,0.7,"c1cc([C@@H]2CCC[C@@H]3CCCN32)ccc1OCCCN1CCCCC1 (racemic) [Example 64, 5-[4-(3-Piperidinylpropoxy)phenyl]octahydroindolizine]"
4,0.3,"c1cc(OCCCN2CCCCC2)cc([C@H]2C[C@@H]3CCCCN3C2)c1 (racemic) [Example 72, anti-2-[3-(3-Piperidinylpropyloxy)phenyl]octahydroindolizine]"
5,1560,"O=[N+]([O-])c1ccc(Oc2ccc([C@H]3CC[C@H]4CCCCN43)cc2)cc1 (racemic) [Example 77, trans-3-[4-(4-Nitrophenoxy)phenyl]octahydroindolizine]"
6,296,"Nc1ccc(Oc2ccc([C@H]3CC[C@H]4CCCCN43)cc2)cc1 (racemic) [Example 78, trans-3-[4-(4-Aminophenoxy)phenyl]octahydroindolizine]"
7,308,"CS(=O)(=O)Nc1cccc(COc2ccc([C@H]3CC[C@H]4CCCCN43)cc2)c1 (racemic) [Example 83, trans-3-[4-(3-Methansulfonaminobenzyloxy)phenyl]octahydroindolizine]"
8,1780,"CCN(c1ccc([C@H]2CC[C@H]3CCCCN32)cc1)C1CCN(S(C)(=O)=O)CC1 (racemic) [Example 104, trans-3-[4-(N-Ethyl-N-4-N-methylsufonylpiperidinylamino)phenyl]octahydroindolizine]"
9,655,Clc1ccc(Cc2ccc([C@H]3CC[C@H]4CCCCN43)cc2)cc1 (racemic) [Example 125]
10,1220,"FC(F)(F)Oc1ccc(-c2ccc([C@H]3CC[C@H]4CCCCN43)cc2)cc1 (relative stereo) [Example 47, trans-3-[4-(4-Trifluromethoxyphenyl)phenyl]octahydroindolizine]"
11,315,"c1ccc([C@H]2C[C@@H]3CCCCN3C2)c(OCCCN2CCCCC2)c1 (relative stereo) [Example 71, anti-2-[2-(3-Piperidinylpropoxy)phenyl]octahydroindolizine]"
